Measured values taken from patent publication US20250249001A1, “METHODS OF TREATING SUBSTANCE USE DISORDER WITH 4-(3-CYANOPHENYL)-6-PYRIDINYLPYRIMIDINE MGLU5 NEGATIVE ALLOSTERIC MODULATORS” (Tempero Bio, Inc., priority 2022, published 2025).
Where two headings read alike, the source gives them in different places.

Tests used:
[1] = test system: cocaine-induced CPP in male SD rats; assay type: in vivo, Sprague Dawley rats; conditions: for time difference (drug-paired vs saline-paired) vs Cocaine-Saline group / time spent in the drug-paired compartment vs Cocaine-Saline group: day 10
Procedure: Animals: Male Sprague Dawley rats (Envigo, IN, 275-299 g) were group housed upon arrival (2 per cage). All rats were examined and handled to assure adequate health and suitability. During the study, a 12/12 light/dark cycle was maintained (lights switched on at 7:00 am). The room temperature was maintained between […] and 23° C. with a relative humidity maintained around 50%. Chow (LabDiet #5001) and water were provided ad libitum for the duration of the study. The test was performed during the animal's light cycle phase.
Cocaine (10 mg/kg) was dissolved in saline and injected IP at a dose volume of 1 ml/kg. Cocaine was administered on training days 3, 5, 7 and 9 immediately prior to training.
3-((2-Methyl-4-thiazolyl)ethynyl)pyridine (MTEP, 3 mg/kg), was dissolved in saline and injected IP on day 10 (bias test) at a dose volume of 1 ml/kg 30 minutes prior to testing.
Compound 1 (1, 3 and 10 mg/kg) was formulated in 10% Solutol HS15 and 90% (10% aqueous 2-hydroxypropyl-β-cyclodextrin) and injected IP on day 10 (bias test) at a dose volume of 2 ml/kg. Compound 1 was administered 30 minutes prior to testing.
The chamber used in this study contained two compartments [(60 cm (L)×40 cm (W)×24 cm (H)]. The compartment used for each animal and drug pairing was assigned and counterbalanced in advance and adjusted as necessary in the rebalancing procedure after day 1 (see details below). Within the chamber, visual and physical features were used to create the two distinct compartments. For example, one compartment may have a flat plastic floor with white stripes and the other may have a textured floor and black stripes. The chambers were cleaned with 70% alcohol in between runs.
Testing sessions were recorded on days 1 and 10 to determine time spent (seconds) in each chamber.
Day 1 Pre-conditioning/Habituation: Animals are allowed to explore the entire testing chamber freely for 20 min. Animals that display a strong preference for one compartment (>75% time spent in one compartment) are excluded.
Rebalancing Procedure: Animals are rebalanced following day 1 scoring if the difference between groups for time spent in one compartment is greater than 15%.
Days 2-9 Conditioning: All animals are treated with saline on days 2, 4, 6, and 8 and with cocaine or saline on days 3, 5, 7, and 9 depending on their assigned group. Animals are confined to their assigned compartment (saline- or cocaine-paired compartment) for 20 minutes following dosing.
Day 10 Post-conditioning bias test: Animals are dosed once with either saline, MTEP or Compound 1 (1, 3 and 10 mg/kg) according to their assigned. Following dosing, animals are allowed to explore the testing chamber freely for 20 minutes with the compartment dividing door open. Their activity exploring the chamber is recorded for analysis.
Statistical Analysis: Statistical analysis was conducted using GraphPad Prism 9. Scorers blinded to the treatment groups scored the amount of time each animal spent exploring each chamber on days 1 and 10. For bias test data, a one-way analysis of variance (ANOVA) followed by Dunnett's post hoc test was used. Significance was set at p<0.05 and values exceeding two standard deviations of the mean were considered statistical outliers and were excluded from the analysis. Additionally, if an animal spent >85% or <15% of the time in one compartment even without any obvious signs of sedation or locomotor dysfunction, they were excluded from the analysis.

[2] = test system: oxycodone self-administration in rats; test: Intravenous oxycodone self-administration, fixed ratio FR3; assay type: in vivo, Sprague-Dawley rats; conditions: for oxycodone self-administration, Mean Diff., Vehicle vs. treatment: FR3
Procedure: Animals. Adult male Sprague-Dawley rats (300-325 g at arrival) from Envigo (Indiana, USA) were used. Upon arrival, rats were single housed in standard cages with filter tops, and they were acclimated for at least 7 days before any treatment. All rats were examined and handled prior to initiation of the study. During the study, 12 h/12 h light/dark cycles were maintained. The room temperature was 21-23° C. with a relative humidity maintained at 30-70%. Water was provided ad libitum for the duration of the study.
Test Article(s) • Oxycodone (0.05 mg/kg/infusion; Sigma-Aldrich, USA) was dissolved in saline and infused at a rate of 0.1 ml/infusion. • Compound 1 (0.3, 1, and 3 mg/kg) was formulated in 10% Solutol HS15+90% (10% aqueous hydroxypropyl)-β-cyclodextrin and injected IP 30 minutes prior to test at a dose volume of 2 ml/kg. In the reinstatement study only 3 mg/kg was used. • MTEP (3-((2-Methyl-4-thiazolyl)ethynyl)pyridine; 3 mg/kg), was dissolved in saline and injected IP 30 minutes prior to testing at a dose volume of 2 ml/kg.
Apparatus. Intravenous drug self-administration took place in experimental chambers within sound-attenuating cubicles equipped with an exhaust fan (Med Associates, VT). Each chamber contains two response levers situated on one wall of the chamber. A stimulus light was located above each lever and a house light was located at the top of the opposite wall. A pellet receptacle was situated between the two levers for delivery of food pellets (Bio-Serv's Dustless Precision Pellets #F0165, 45 mg). An infusion pump mounted above each chamber delivers drug solutions via Tygon tubing connected to a single channel fluid swivel, which was mounted on a balance arm above the operant chamber. The output of the liquid swivel was attached to the externalized terminus of the intravenous catheter.
Surgery and catheter maintenance: The rats were first implanted with jugular vein catheters (Access Technologies, USA). After the surgery, catheters were flushed daily with 0.2 ml of heparin-Enrofloxacin solution to avoid clogging and to ensure smooth drug infusion. The flushing liquid was made in 50 ml volume units which contained 1500 U Heparin and 320 mg Enrofloxacin (Baytril®). The solution was stored in sterilized vials in a 4° C. refrigerator. After the rats recovered from catheterization surgery, they were food-restricted (about 15 or 20 g/day) and maintained at ˜85% of their free-feeding, age-matched control body weight throughout the study. Starting from the 3rd day of food restriction, rats were trained to press the active lever (one of the two levers) to obtain food. During the study, Methohexital sodium (Brevital®, Henry Schein Animal Health, USA) was used twice for catheter evaluation and thereby for indirect infusion confirmation. Brevital is a short-acting barbiturate that, when infused through the catheter, produces overt signs of sedation within seconds. […] The rats were first implanted with jugular vein catheters (Access Technologies, USA). After the surgery, catheters were flushed daily with 0.2 ml of heparin-Enrofloxacin solution to avoid clogging and to ensure smooth drug infusion. The flushing liquid was made in 50 ml volume units which contained 1500 U Heparin and 320 mg Enrofloxacin (Baytril®). The solution was stored in sterilized vials in a 4° C. refrigerator. After the rats recovered from catheterization surgery, they were food-restricted (about 15 or 20 g/day) and maintained at ˜85% of their free-feeding, age-matched control body weight throughout the study. Starting from the 3rd day of food restriction, rats were trained to press the active lever (one of the two levers) to obtain food. During the study, Methohexital sodium (Brevital®, Henry Schein Animal Health, USA) was used a few times for catheter evaluation and thereby for indirect infusion confirmation. Brevital is a short-acting barbiturate that, when infused through the catheter, produces overt signs of sedation within seconds. […]

[3] = 1 mg/kg IP 30 minutes prior to day 10 bias test
[4] = 3 mg/kg IP 30 minutes prior to test
[5] = MTEP 3 mg/kg IP 30 minutes prior to day 10 bias test

N#Cc1cc(Cl)cc(-c2cc(-c3ccc(F)cn3)ncn2)c1 [Compound 1, 3-chloro-5-[6-(5-fluoropyridin-2-yl)pyrimidin-4-yl]benzonitrile]
Percent time in compound-paired compartment, Mean Diff., Cocaine - Saline vs. Cocaine - Compound 1 (1 mg/kg) [1, 3]: 19.16%
Preference Scores, Mean Diff., Cocaine - Saline vs. Cocaine - Compound 1 (1 mg/kg) [1, 3]: 459.9 s
time difference (drug-paired vs saline-paired) vs Cocaine-Saline group ([1]; 1 mg/kg IP, p<0.01): significantly lower time difference
time spent in the drug-paired compartment vs Cocaine-Saline group ([1]; 1 mg/kg IP, p<0.01): significantly less time in the drug-paired compartment
oxycodone self-administration, Mean Diff., Vehicle vs. treatment ([2]; 0.3 mg/kg IP 30 minutes prior to test): 5.438
oxycodone self-administration, Mean Diff., Vehicle vs. treatment ([2]; 1 mg/kg IP 30 minutes prior to test): 6.283
oxycodone self-administration, Mean Diff., Vehicle vs. treatment [2, 4]: 9.483
oxycodone self-administration vs vehicle ([2]; all three doses, 0.3, 1 and 3 mg/kg IP): significantly attenuated oxycodone self-administration

Cc1nc(C#Cc2cccnc2)cs1 [MTEP, 3-((2-Methyl-4-thiazolyl)ethynyl)pyridine]
time difference (drug-paired vs saline-paired) vs Cocaine-Saline group ([1]; 3 mg/kg IP, p<0.05): significantly lower time difference
time spent in the drug-paired compartment vs Cocaine-Saline group ([1]; 3 mg/kg IP, p<0.05): significantly less time in the drug-paired compartment
Percent time in compound-paired compartment, Mean Diff., Cocaine - Saline vs. Cocaine - MTEP [1, 5]: 18.73%
Preference Scores, Mean Diff., Cocaine - Saline vs. Cocaine - MTEP [1, 5]: 449.6 s
self-administered oxycodone infusion vs vehicle treatment ([2]; 3 mg/kg IP): significantly decreased self-administered oxycodone infusion
oxycodone self-administration, Mean Diff., Vehicle vs. treatment [2, 4]: 7.188
